Where two headings read alike, the source gives them in different places.

Test [1] concerns A2780 (ovarian cancer) cell lines, A2780-P and A2780-CR. The test is described as follows: Antiproliferative activity in A2780 ovarian cancer cell lines. The format is cell-based. Particulars: cisplatin resistant A2780-CR versus parental A2780-P; FIG. 1A/1B. The procedure: (§1) Data shown are mean cell viability±standard error of the mean (SEM), n=2-3 and are representative of duplicate independent experiments.
(§2) Representative of duplicate independent experiments; mean±SD shown.
(§3) The sensitivity of multiple solid tumor cancer cell lines to the antiproliferative activity of Compound 1 with and without cisplatin was evaluated. […] Combination treatment with Compound 1 and cisplatin, however, led to greater than 50% reduction in growth.

The test system of test [2] is HT1376 (bladder cancer) cell lines, HT1376-DMF and HT1376-CR. The test is described as follows: Antiproliferative activity in HT1376 bladder cancer cell lines. The format is cell-based. Particulars: cisplatin resistant HT1376-CR versus age-matched DMF control HT1376-DMF; FIG. 1A/1B. The procedure:
as §1, §2, §3

In test [3] the target is T1, EZH2 (PRC2) (Homo sapiens, UniProt Q15910). The test is described as follows: Kinetic assays characterising binding to PRC2. The following applies: from kinetic assays. The procedure:
In biochemical assays, Compound 1 suppresses catalytic activity of wild-type and Y641N mutant EZH2-containing PRC2 complex, as well as EZH1-containing PRC2 complex, with half-maximal inhibitory concentrations (IC50) values of 0.02 and 0.03 nM for wild-type and Y641N mutant EZH2, respectively, and 0.06 nM for EZH1. See e.g., PCT/US2019/027932. […] Based-upon the kinetic analysis it was determined that Compound 1 binds to PRC2 with a long residence time (approximately 101 days). See e.g., PCT/US2019/027932.

In test [4] the test system is H3K27me3 in 639V bladder cancer cell line. The test is described as follows: Global H3K27me3 intracellular levels, 639V. The following applies: Homo sapiens, 72 h, Day 3, read-out: EC50, reduction of global H3K27me3 levels. Type of test: cell-based.
The test system of test [5] is H3K27me3 in HT1197 bladder cancer cell line. Description: Global H3K27me3 intracellular levels, HT1197. The following applies: Homo sapiens, 72 h; HT1197, Day 3; read-out: EC50, reduction of global H3K27me3 levels. The format is cell-based.
In test [6] the test system is H3K27me3 in ovarian cancer TOV21G cell line. The test is described as follows: Global H3K27me3 intracellular levels, TOV21G. Type of test: cell-based. The following applies: Homo sapiens, 72 h, Day 3, read-out: EC50, reduction of global H3K27me3 levels.
Test [7] has as its system gene expression in bladder cancer cell lines. Description: RNA-sequencing of bladder cancer cell lines. Type of test: cell-based. The following applies: treatment for 4 days. The text has this:
Reduction in H3K27me3 levels result in changes in gene expression. RNA-sequencing of bladder cancer cell lines after treatment with Compound 1 for 4 days results in significant changes in the expression levels of multiple genes. […] The increase in gene expression is both dose and time dependent, with increasing expression observed at higher concentrations of Compound 1 and at later timepoints. This contrasts with reductions of H3K27me3 as methyl mark changes were observed after 1 day of Compound 1 treatment. […] See Yang X, Karuturi R K, Sun F, et al. CDKN1C (p57) is a direct target of EZH2 and suppressed by multiple epigenetic mechanisms in breast cancer cells. PLoS One. 2009; 4(4):e5011. Low expression of CDKN1C is seen in advanced bladder and breast cancers and is correlated with poor prognosis. See Yang above and Hoffmann M J, Florl A R, Seifert H H, et al. Multiple mechanisms downregulate CDKN1C in human bladder cancer. Int J Cancer. 2005 Apr. 10; 114(3):406-13.

Test [8] has as its system HT1376 tumors. Description: Antitumor effect in HT1376 tumors. Type of test: in vivo. The following applies: HT1376 tumors in CB17 SCID mice; FIG. 4. The text has this: FIG. 4 illustrates the antitumor effect of Compound 1, cisplatin, and the combination of both in HT1376 tumors in CB17 SCID mice. Data shown are mean tumor size±SEM, n=6. PO=oral administration, IV=intravenous administration, QD=once per day, QW=once per week.

In test [9] the target is wild-type EZH2-containing PRC2 complex (Homo sapiens, UniProt Q15910). The following applies: see PCT/US2019/027932, read-out: half-maximal inhibitory concentration (IC50), catalytic activity; cited from earlier work.
The target of test [10] is Y641N mutant EZH2-containing PRC2 complex (Homo sapiens, UniProt Q15910, Y641N). Particulars: see PCT/US2019/027932, read-out: half-maximal inhibitory concentration (IC50), catalytic activity; cited from earlier work.
The target of test [11] is EZH1-containing PRC2 complex (Homo sapiens, UniProt Q92800). The following applies: see PCT/US2019/027932, read-out: half-maximal inhibitory concentration (IC50), catalytic activity; cited from earlier work.
Test [12] concerns the target T1, EZH2 (PRC2). The following applies: binding to PRC2 complex, see PCT/US2019/027932, cited from earlier work.
The subject of test [13] is H3K27me3 in HeLa (wild-type EZH2-containing cervical cancer cell line). Particulars: after 4 days of treatment, see PCT/US2019/027932, read-out: EC50, reduction of global H3K27me3 levels; cited from earlier work.

T1 sequence (Q15910 whole entry): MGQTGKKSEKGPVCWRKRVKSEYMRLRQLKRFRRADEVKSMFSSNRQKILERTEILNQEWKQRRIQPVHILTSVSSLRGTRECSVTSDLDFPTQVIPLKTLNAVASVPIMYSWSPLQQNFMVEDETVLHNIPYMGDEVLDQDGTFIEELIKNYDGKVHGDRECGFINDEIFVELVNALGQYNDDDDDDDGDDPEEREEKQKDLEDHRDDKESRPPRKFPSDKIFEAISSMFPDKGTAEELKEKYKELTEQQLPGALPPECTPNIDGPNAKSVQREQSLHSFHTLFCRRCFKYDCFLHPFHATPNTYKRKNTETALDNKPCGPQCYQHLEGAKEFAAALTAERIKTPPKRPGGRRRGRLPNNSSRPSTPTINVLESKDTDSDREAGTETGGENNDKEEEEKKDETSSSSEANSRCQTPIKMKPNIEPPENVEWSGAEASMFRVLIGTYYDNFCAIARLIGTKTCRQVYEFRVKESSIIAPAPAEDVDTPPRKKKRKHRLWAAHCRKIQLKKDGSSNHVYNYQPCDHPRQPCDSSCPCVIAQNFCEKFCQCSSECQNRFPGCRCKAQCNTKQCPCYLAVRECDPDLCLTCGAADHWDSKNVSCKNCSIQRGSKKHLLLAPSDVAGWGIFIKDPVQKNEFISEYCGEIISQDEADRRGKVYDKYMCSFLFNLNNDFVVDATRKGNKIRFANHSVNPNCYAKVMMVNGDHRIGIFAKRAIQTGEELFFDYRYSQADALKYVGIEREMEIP
T1 sequence (O75530 whole entry partner): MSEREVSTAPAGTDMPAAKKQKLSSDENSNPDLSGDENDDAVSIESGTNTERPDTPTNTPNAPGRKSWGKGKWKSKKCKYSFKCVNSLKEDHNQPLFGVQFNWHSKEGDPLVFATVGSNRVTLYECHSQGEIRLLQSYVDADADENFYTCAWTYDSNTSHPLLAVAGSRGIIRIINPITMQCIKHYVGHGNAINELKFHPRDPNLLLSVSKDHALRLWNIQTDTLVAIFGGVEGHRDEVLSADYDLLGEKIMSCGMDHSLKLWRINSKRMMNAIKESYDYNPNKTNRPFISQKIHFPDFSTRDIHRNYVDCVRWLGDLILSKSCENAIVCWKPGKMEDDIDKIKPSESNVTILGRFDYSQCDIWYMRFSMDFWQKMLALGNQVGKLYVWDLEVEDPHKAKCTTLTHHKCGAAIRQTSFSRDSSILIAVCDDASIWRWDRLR
T1 sequence (Q15022 whole entry partner): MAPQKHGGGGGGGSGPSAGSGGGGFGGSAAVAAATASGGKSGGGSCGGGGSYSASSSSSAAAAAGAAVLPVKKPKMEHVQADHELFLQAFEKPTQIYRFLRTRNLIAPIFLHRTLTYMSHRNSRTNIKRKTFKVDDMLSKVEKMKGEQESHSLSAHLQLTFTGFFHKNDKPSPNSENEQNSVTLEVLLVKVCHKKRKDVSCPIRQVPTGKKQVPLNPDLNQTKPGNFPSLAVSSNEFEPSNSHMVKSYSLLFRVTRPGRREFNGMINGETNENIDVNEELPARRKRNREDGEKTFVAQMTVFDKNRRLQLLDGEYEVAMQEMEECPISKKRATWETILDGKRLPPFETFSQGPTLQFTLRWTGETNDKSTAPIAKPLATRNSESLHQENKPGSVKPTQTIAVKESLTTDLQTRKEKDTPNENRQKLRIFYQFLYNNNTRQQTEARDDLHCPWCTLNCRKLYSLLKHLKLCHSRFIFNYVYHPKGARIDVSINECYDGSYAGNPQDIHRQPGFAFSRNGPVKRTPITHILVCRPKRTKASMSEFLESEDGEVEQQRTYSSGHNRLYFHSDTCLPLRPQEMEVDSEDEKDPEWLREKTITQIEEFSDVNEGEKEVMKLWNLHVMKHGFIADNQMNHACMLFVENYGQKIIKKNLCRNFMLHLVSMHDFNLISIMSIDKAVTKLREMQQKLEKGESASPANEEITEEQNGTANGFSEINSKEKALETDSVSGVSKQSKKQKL
T1 sequence (Q09028 whole entry partner): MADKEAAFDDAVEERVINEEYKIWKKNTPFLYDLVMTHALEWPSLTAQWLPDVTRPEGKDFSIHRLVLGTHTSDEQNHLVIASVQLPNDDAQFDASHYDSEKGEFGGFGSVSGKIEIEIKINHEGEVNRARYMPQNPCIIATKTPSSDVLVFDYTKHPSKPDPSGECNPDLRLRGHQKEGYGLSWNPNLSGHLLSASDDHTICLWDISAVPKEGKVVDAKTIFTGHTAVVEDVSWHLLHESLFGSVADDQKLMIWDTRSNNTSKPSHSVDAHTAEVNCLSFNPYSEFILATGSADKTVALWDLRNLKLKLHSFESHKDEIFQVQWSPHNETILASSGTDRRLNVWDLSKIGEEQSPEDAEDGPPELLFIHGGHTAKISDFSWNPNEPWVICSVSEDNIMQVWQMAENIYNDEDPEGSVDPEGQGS
Sequence of EZH1-containing PRC2 complex (Q92800 whole entry): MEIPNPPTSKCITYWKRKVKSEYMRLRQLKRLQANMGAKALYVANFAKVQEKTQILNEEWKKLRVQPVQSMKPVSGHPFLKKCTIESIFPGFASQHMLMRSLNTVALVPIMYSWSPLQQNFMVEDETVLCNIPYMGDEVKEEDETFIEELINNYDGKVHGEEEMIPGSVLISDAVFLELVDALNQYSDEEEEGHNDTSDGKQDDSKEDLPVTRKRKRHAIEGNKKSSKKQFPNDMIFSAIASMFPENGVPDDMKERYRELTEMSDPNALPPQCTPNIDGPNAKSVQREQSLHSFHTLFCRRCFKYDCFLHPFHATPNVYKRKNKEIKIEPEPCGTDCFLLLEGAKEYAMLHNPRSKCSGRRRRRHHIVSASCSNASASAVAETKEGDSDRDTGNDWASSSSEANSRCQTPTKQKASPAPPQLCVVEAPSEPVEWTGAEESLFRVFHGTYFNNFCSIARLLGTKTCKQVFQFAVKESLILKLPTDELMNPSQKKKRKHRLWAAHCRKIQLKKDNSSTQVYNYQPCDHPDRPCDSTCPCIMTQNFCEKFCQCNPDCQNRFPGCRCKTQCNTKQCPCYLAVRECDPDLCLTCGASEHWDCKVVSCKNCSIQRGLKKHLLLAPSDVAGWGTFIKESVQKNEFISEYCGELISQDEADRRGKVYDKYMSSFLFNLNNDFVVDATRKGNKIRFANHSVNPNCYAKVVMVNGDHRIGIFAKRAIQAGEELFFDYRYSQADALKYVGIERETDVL
Sequence of EZH1-containing PRC2 complex (O75530 whole entry partner): as the sequence (O75530 whole entry partner) above
Sequence of EZH1-containing PRC2 complex (Q15022 whole entry partner): as the sequence (Q15022 whole entry partner) above
Sequence of EZH1-containing PRC2 complex (Q09028 whole entry partner): as the sequence (Q09028 whole entry partner) above
Sequence of Y641N mutant EZH2-containing PRC2 complex (Q15910 whole entry Y641N): as the sequence (Q15910 whole entry) above, with Y641N counted along it
Sequence of Y641N mutant EZH2-containing PRC2 complex (O75530 whole entry partner): as the sequence (O75530 whole entry partner) above
Sequence of Y641N mutant EZH2-containing PRC2 complex (Q15022 whole entry partner): as the sequence (Q15022 whole entry partner) above
Sequence of Y641N mutant EZH2-containing PRC2 complex (Q09028 whole entry partner): as the sequence (Q09028 whole entry partner) above
Sequence of wild-type EZH2-containing PRC2 complex (Q15910 whole entry): as the sequence (Q15910 whole entry) above
Sequence of wild-type EZH2-containing PRC2 complex (O75530 whole entry partner): as the sequence (O75530 whole entry partner) above
Sequence of wild-type EZH2-containing PRC2 complex (Q15022 whole entry partner): as the sequence (Q15022 whole entry partner) above
Sequence of wild-type EZH2-containing PRC2 complex (Q09028 whole entry partner): as the sequence (Q09028 whole entry partner) above

Regarding `N.N.[Cl][Pt][Cl]` [cisplatin, reference compound], the “sensitivity (cell viability) to single treatment” value in test [1] and in test [2] was “less sensitive” each time.
For orientation: EC50 means the concentration giving half of the maximal effect. As to `COC1CN(C2CCC(C3(C)Oc4c(Cl)cc(C(=O)NCc5c(SC)cc(C)[nH]c5=O)c(C)c4O3)CC2)C1` (single isomer, unassigned) [Compound 1, 7-chloro-2-(4-(3-methoxyazetidin-1-yl)cyclohexyl)-2,4-dimethyl-N-((6-methyl-4-(methylthio)-2-oxo-1,2-dihydropyridin-3-yl)methyl)benzo[d][1,3]dioxole-5-carboxamide], the “selectivity for EZH2 over EZH1” value in [3] is reported as “approximately 70 fold”. Besides, the EC50 in test [4] is 0.09 nM; in [5], 0.14 nM; in test [6], 0.26 nM; in test [13] it was 0.4 nM. In [7], the “CDKN1C (p57, Kip2) gene expression” value was “highly upregulated”. The “sensitivity (cell viability) to single treatment” value in test [1] and in test [2] was “strongly sensitive” throughout. Also, the tumor growth result in test [8] is “effective in reducing tumor growth”. In addition, the IC50 in test [9] is 0.02 nM; in test [10], 0.03 nM; in [11], 0.06 nM. The results for the residence time entry in test [12] and in [12] (listed as 7-chloro-2-(4-(3-methoxyazetidin-1-yl)cyclohexyl)-2,4-dimethyl-N-(6-methyl-4-(m))) were “approximately 101 days” and approximately 101 days, respectively.
